From patent US7964531B2, “3-phenoxy-4-pyridazinol derivatives and herbicidal composition containing the same” (Mitsui Chemicals Agro, Inc., priority 2001, dated 2011)

Key:
Type in all cases: in vivo
Details in all cases: wettable powder applied 3 days after transplanting, judged after 25 days
Cyperus serotinus = test: Test Example 1: herbicidal effects, paddy-field pot test
How it was run: (§1)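 Herbicidal effect and crop injury were rated 0 (0-10% inhibition) to 5 (91-100%) 25 days after treatment. Water-diluted wettable powder was applied to flooded greenhouse pots 3 days after transplanting 2.2-leaf rice. The pots held seeded weeds and sprouted Cyperus serotinus tubers.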

[1] = test system: annual broad-leaved weeds (Lindernia spp., Rotala indica); test: as above
How it was run: as §1

[2] = test system: barnyardgrass (Echinochloa oryzicola Vasing.); test: as above
How it was run: as §1

Scirpus joncoides = test: as above
How it was run: as §1

[3] = test system: transplanted paddy-field rice; test: Test Example 1: crop injury against transplanted paddy-field rice
How it was run: as §1

Compound	Herbicidal effects Cyperus serotinus (Cyperus serotinus; chemical dosage 10 g/a)	Herbicidal effects Cyperus serotinus (Cyperus serotinus; chemical dosage 20 g/a)	Herbicidal effects Broad leaf ([1]; chemical dosage 10 g/a)	Herbicidal effects Broad leaf ([1]; chemical dosage 20 g/a)	Herbicidal effects Barnyard grass ([2]; chemical dosage 10 g/a)	Herbicidal effects Barnyard grass ([2]; chemical dosage 20 g/a)	Herbicidal effects Scirpus joncoides (Scirpus joncoides; chemical dosage 10 g/a)	Herbicidal effects Scirpus joncoides (Scirpus joncoides; chemical dosage 20 g/a)	Crop injury against transplanted rice ([3]; chemical dosage 10 g/a)	Crop injury against transplanted rice ([3]; chemical dosage 20 g/a)	Herbicidal effects Cyperus serotinus (Cyperus serotinus; chemical dosage 12.5 g/a)	Herbicidal effects Cyperus serotinus (Cyperus serotinus; chemical dosage 25 g/a)	Herbicidal effects Broad leaf ([1]; chemical dosage 12.5 g/a)	Herbicidal effects Broad leaf ([1]; chemical dosage 25 g/a)	Herbicidal effects Barnyard grass ([2]; chemical dosage 12.5 g/a)	Herbicidal effects Barnyard grass ([2]; chemical dosage 25 g/a)	Herbicidal effects Scirpus joncoides (Scirpus joncoides; chemical dosage 12.5 g/a)	Herbicidal effects Scirpus joncoides (Scirpus joncoides; chemical dosage 25 g/a)	Crop injury against transplanted rice ([3]; chemical dosage 12.5 g/a)	Crop injury against transplanted rice ([3]; chemical dosage 25 g/a)
Oc1cc(Cl)nnc1Oc1cccc2occc12 [Example 183]	5 (Growth inhibition rate; 91 to 100%)	5 (Growth inhibition rate; 91 to 100%)	5 (Growth inhibition rate; 91 to 100%)	5 (Growth inhibition rate; 91 to 100%)	1 (Growth inhibition rate; 11 to 30%)	2 (Growth inhibition rate; 31 to 50%)	5 (Growth inhibition rate; 91 to 100%)	5 (Growth inhibition rate; 91 to 100%)	0 (Growth inhibition rate; 0 to 10%)	0 (Growth inhibition rate; 0 to 10%)	–	–	–	–	–	–	–	–	–	–
Oc1cc(Cl)nnc1Oc1ccccc1OC(F)(F)F [Example 125]	4 (Growth inhibition rate; 71 to 90%)	5 (Growth inhibition rate; 91 to 100%)	5 (Growth inhibition rate; 91 to 100%)	5 (Growth inhibition rate; 91 to 100%)	1 (Growth inhibition rate; 11 to 30%)	2 (Growth inhibition rate; 31 to 50%)	3 (Growth inhibition rate; 51 to 70%)	4 (Growth inhibition rate; 71 to 90%)	0 (Growth inhibition rate; 0 to 10%)	0 (Growth inhibition rate; 0 to 10%)	–	–	–	–	–	–	–	–	–	–
CSCc1c(C)ccc(C)c1Oc1nnc(Cl)cc1O [Example 303]	–	–	–	–	–	–	–	–	–	–	5 (Growth inhibition rate; 91 to 100%)	5 (Growth inhibition rate; 91 to 100%)	3 (Growth inhibition rate; 51 to 70%)	4 (Growth inhibition rate; 71 to 90%)	0 (Growth inhibition rate; 0 to 10%)	1 (Growth inhibition rate; 11 to 30%)	3 (Growth inhibition rate; 51 to 70%)	4 (Growth inhibition rate; 71 to 90%)	0 (Growth inhibition rate; 0 to 10%)	0 (Growth inhibition rate; 0 to 10%)
Cc1cc(C)cc(Oc2nnc(Cl)cc2O)c1 [Example 281]	–	–	–	–	–	–	–	–	–	–	5 (Growth inhibition rate; 91 to 100%)	5 (Growth inhibition rate; 91 to 100%)	5 (Growth inhibition rate; 91 to 100%)	5 (Growth inhibition rate; 91 to 100%)	0 (Growth inhibition rate; 0 to 10%)	0 (Growth inhibition rate; 0 to 10%)	2 (Growth inhibition rate; 31 to 50%)	3 (Growth inhibition rate; 51 to 70%)	0 (Growth inhibition rate; 0 to 10%)	0 (Growth inhibition rate; 0 to 10%)
Cc1ccccc1Oc1nnc(Br)cc1O [Example 34]	5 (Growth inhibition rate; 91 to 100%)	5 (Growth inhibition rate; 91 to 100%)	2 (Growth inhibition rate; 31 to 50%)	4 (Growth inhibition rate; 71 to 90%)	1 (Growth inhibition rate; 11 to 30%)	2 (Growth inhibition rate; 31 to 50%)	2 (Growth inhibition rate; 31 to 50%)	4 (Growth inhibition rate; 71 to 90%)	0 (Growth inhibition rate; 0 to 10%)	0 (Growth inhibition rate; 0 to 10%)	–	–	–	–	–	–	–	–	–	–
COc1ccccc1Oc1nnc(Cl)cc1O [Example 121]	–	–	–	–	–	–	–	–	–	–	5 (Growth inhibition rate; 91 to 100%)	5 (Growth inhibition rate; 91 to 100%)	5 (Growth inhibition rate; 91 to 100%)	5 (Growth inhibition rate; 91 to 100%)	2 (Growth inhibition rate; 31 to 50%)	3 (Growth inhibition rate; 51 to 70%)	3 (Growth inhibition rate; 51 to 70%)	4 (Growth inhibition rate; 71 to 90%)	0 (Growth inhibition rate; 0 to 10%)	0 (Growth inhibition rate; 0 to 10%)
CC(C)Oc1ccccc1Oc1nnc(Cl)cc1O [Example 123]	4 (Growth inhibition rate; 71 to 90%)	5 (Growth inhibition rate; 91 to 100%)	5 (Growth inhibition rate; 91 to 100%)	5 (Growth inhibition rate; 91 to 100%)	0 (Growth inhibition rate; 0 to 10%)	1 (Growth inhibition rate; 11 to 30%)	3 (Growth inhibition rate; 51 to 70%)	4 (Growth inhibition rate; 71 to 90%)	0 (Growth inhibition rate; 0 to 10%)	0 (Growth inhibition rate; 0 to 10%)	–	–	–	–	–	–	–	–	–	–
O=C(Oc1cc(Cl)nnc1Oc1ccccc1C1CC1)C1CC1 [Example 327]	5 (Growth inhibition rate; 91 to 100%)	5 (Growth inhibition rate; 91 to 100%)	5 (Growth inhibition rate; 91 to 100%)	5 (Growth inhibition rate; 91 to 100%)	4 (Growth inhibition rate; 71 to 90%)	4 (Growth inhibition rate; 71 to 90%)	5 (Growth inhibition rate; 91 to 100%)	5 (Growth inhibition rate; 91 to 100%)	0 (Growth inhibition rate; 0 to 10%)	0 (Growth inhibition rate; 0 to 10%)	–	–	–	–	–	–	–	–	–	–
Oc1cc(Cl)nnc1Oc1ccccc1F [Example 49]	–	–	–	–	–	–	–	–	–	–	5 (Growth inhibition rate; 91 to 100%)	5 (Growth inhibition rate; 91 to 100%)	3 (Growth inhibition rate; 51 to 70%)	5 (Growth inhibition rate; 91 to 100%)	1 (Growth inhibition rate; 11 to 30%)	2 (Growth inhibition rate; 31 to 50%)	3 (Growth inhibition rate; 51 to 70%)	4 (Growth inhibition rate; 71 to 90%)	0 (Growth inhibition rate; 0 to 10%)	0 (Growth inhibition rate; 0 to 10%)
Oc1cc(Cl)nnc1Oc1c(C2CC2)ccc2c1CCC2 [Example 307]	5 (Growth inhibition rate; 91 to 100%)	5 (Growth inhibition rate; 91 to 100%)	5 (Growth inhibition rate; 91 to 100%)	5 (Growth inhibition rate; 91 to 100%)	3 (Growth inhibition rate; 51 to 70%)	4 (Growth inhibition rate; 71 to 90%)	5 (Growth inhibition rate; 91 to 100%)	5 (Growth inhibition rate; 91 to 100%)	0 (Growth inhibition rate; 0 to 10%)	0 (Growth inhibition rate; 0 to 10%)	–	–	–	–	–	–	–	–	–	–
